The text below walks through data of patent publication US20220064672A1, “ENGINEERED ONCOLYTIC VIRUSES EXPRESSING PD-L1 INHIBITORS AND USES THEREOF” (priority 2020, published 2022).

One assay concerns the target T1, H-2D^b (Mus musculus, UniProt P01899).
T1 sequence (P01899 25-362): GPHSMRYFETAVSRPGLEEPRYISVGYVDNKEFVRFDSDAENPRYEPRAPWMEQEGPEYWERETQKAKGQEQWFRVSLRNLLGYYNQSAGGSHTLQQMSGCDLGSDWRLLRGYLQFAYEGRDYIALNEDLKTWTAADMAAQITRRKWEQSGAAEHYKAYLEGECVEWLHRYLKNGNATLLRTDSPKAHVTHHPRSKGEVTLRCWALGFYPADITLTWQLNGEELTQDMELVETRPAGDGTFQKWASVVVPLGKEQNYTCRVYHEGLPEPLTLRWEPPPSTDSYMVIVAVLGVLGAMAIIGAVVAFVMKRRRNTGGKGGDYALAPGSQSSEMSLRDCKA
T1 sequence (P01887 21-119 partner): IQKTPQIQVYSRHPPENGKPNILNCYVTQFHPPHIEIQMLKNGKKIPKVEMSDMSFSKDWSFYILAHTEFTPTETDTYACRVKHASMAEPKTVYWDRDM
The conditions noted are these: MHC allele H-2D^b, cited from earlier work.

The target of a further assay is T2, H-2K^b (Mus musculus, UniProt P01901).
T2 sequence (P01901 22-369): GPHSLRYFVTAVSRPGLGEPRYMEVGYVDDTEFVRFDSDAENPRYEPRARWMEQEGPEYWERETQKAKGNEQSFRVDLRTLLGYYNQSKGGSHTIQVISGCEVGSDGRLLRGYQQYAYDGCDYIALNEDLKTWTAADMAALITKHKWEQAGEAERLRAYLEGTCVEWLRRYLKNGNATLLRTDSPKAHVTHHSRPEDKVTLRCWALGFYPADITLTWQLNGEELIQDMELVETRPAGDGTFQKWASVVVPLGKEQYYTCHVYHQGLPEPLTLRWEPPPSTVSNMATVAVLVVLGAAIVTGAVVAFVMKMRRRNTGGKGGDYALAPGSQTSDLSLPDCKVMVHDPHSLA
T2 sequence (P01887 21-119 partner): T1 sequence (P01887 21-119 partner)
The settings on record: MHC allele H-2K^b, cited from earlier work.

Assay [1] has as its target PD-L1 protein (Abcam, ab130039) (UniProt Q9EP73). The assay can be described thus: competitive ELISA: PD-L1-coated plate, displacement of mouse PD-1-biotin.
A further assay deals with T3, PD-L1^+ tumor cells (Homo sapiens, UniProt Q9NZQ7).
T3 construct: endogenous in cells; host or cells: IFN-γ-stimulated U251 or H226
The assay is classed as cell-based. The settings on record: PD-L1-transduced 293T or K562, IFN-γ pre-stimulated H226 or U251.

Another assay concerns the target T4, PD-1/PD-L1 interaction (Homo sapiens, UniProt Q9NZQ7).
T4 construct: purchased BPS Bioscience
Format: binding. The settings on record: purified ihPDL1 at the tested concentrations.

Assay [2] deals with T-cells from healthy PBMCs with allogeneic mature DCs. The assay is classed as cell-based, human. The conditions noted are these: purified ihPDL1 at 0.01 μg/mL, 0.1 μg/mL, or 1 μg/mL.
For assay [3], the system named is K562/PD-L1, U251/PD-L1, H226/PD-L1 target cells. The assay can be described thus: ADCC assay (Jurkat effector cells). The assay is classed as cell-based, human. The settings on record: any of the PD-L1-expressed target cell lines. The protocol: ADCC assay: Purified ihPDL1 was analyzed with ADCC kit according to the manufacturer's instruction (Promega, Madison, Wis.).

Assay [4] addresses PD-L1 (Homo sapiens, UniProt Q9NZQ7). The assay can be described thus: Surface plasmon resonance (SPR)-binding assay. The conditions noted are these: immobilized PD-L1-His tag protein. Here is the method:
Surface plasmon resonance (SPR)-binding assays: The assays were carried out at 25° C. using a Biacore T100 (USC NanoBiophysics Center). CMS sensor chips were activated by a 7 min injection of a 1:1 mixture of N-hydroxysuccinimide and 1-ethyl-3-(3-dimethylaminopropyl) carbodiimide hydrochloride at a flow rate of 10 μL/min. The PD-L1-His tag protein was prepared at a concentration of 10 μg/mL in 10 mM acetate buffer, pH 4.0, and immobilized to the sensor chips by amine linkage, with the typical immobilization levels being 100 response units. For blocking sensor chips, 70 μL of 1M ethanolamine-HCl buffer, pH 8.5, was injected and the chips were further washed with 10 μL of 10 mM glycine-HCl buffer, pH 1.5. For analyzing the binding and equilibrium affinity of ihPDL1 or a-PD-L1 antibody (biolegend, cat 329702), 5 serial dilutions of ihPDL1 starting from 200 μg/mL, or 6 serial dilutions of α-PD-L1 antibody starting from 100 μg/mL were injected at a flow rate of 30 μL/min over the sensor chips coupled with PD-L1 protein. The data sets were analyzed using a model for 1:1 binding.

The target in assay [5] is T5, PD-L1 (Mus musculus, UniProt Q9EP73).
T5 construct: from tissue; host or cells: single-cell suspensions of treated and distant MC38 tumours from C57BL/6 mice
The assay is classed as in vivo. The settings on record: MC38, untreated distant tumors.

Assay [6] concerns the target T6, PD-L1 on MC38 tumor cells (Mus musculus, UniProt Q9EP73).
T6 construct: endogenous in cells; host or cells: MC38 (wild type, IFN-γ stimulated, or PD-L1 shRNA knock-down as negative control)
The assay is classed as cell-based.

The subject of another assay is PD-1+ CD8+ T cells. The conditions noted are these: purified iPDL1 in comparison to control IgG.
In assay [7] the target is PD-L1 protein (Abcam, ab130039) (UniProt Q9EP73 19-238). The assay can be described thus: competitive ELISA: PD-L1-coated plate, displacement of mouse PD-1-biotin.
Where [8] appears, read: mutant peptide, read-out: IC50 (mutant).
The mark [9] stands for this setting: wild type peptide, read-out: IC50 (Wild Type).

Read-outs that look alike come from different tables or passages of the source.

T6 sequence (Q9EP73 19-290): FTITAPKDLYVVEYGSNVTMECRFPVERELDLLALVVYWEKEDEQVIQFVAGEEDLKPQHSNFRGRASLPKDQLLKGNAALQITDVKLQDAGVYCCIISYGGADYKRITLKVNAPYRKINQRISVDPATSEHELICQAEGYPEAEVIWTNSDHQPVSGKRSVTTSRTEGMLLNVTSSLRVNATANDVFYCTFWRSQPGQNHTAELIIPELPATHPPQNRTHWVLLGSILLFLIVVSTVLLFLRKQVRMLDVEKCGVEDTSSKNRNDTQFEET
T4 sequence (Q9NZQ7 19-238 limits assumed): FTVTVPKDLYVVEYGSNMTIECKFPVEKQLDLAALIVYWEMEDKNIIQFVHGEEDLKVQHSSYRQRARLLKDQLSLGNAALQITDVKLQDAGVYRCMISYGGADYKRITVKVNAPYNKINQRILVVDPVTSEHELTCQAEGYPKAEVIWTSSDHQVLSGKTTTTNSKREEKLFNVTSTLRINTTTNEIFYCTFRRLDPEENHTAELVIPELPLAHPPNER
Sequence of PD-L1 protein (Abcam, ab130039) (UniProt Q9EP73 19-238) (Q9EP73 19-238 limits assumed): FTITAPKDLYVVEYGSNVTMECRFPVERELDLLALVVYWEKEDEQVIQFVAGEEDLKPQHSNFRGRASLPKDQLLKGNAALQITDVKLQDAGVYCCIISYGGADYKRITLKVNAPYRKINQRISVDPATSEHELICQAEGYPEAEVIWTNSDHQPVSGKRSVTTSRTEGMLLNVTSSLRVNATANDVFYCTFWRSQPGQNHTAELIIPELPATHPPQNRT
Sequence of PD-L1 protein (Abcam, ab130039) (UniProt Q9EP73) (Q9EP73 19-238 limits assumed): as above
T3 sequence (Q9NZQ7 19-290): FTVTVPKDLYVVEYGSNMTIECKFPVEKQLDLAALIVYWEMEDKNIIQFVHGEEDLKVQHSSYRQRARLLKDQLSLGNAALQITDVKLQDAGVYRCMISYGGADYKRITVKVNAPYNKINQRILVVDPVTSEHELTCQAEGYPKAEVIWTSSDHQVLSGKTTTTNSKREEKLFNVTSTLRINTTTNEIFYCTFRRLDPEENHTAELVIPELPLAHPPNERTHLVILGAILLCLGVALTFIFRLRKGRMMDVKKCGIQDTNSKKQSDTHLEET
Sequence of PD-L1 (Homo sapiens, UniProt Q9NZQ7) (Q9NZQ7 19-290): as above
T5 sequence (Q9EP73 19-290): as the sequence (Q9EP73 19-290) above
Description for PD-1+ CD8+ T cells: (FIG. 7I) PD-1+ CD8+ T cells isolated from VV-treated MC38 tumors were cocultured with MC38 cells in the presence of purified iPDL1 or IgG. IFN-γ+ frequencies of PD-1+ T cells were shown from one of two independent experiments.

Take (S/I)MTQHLEPI [Pep7]: the IC50 at H-2D^b (setting [8]) was 78 nM; on H-2D^b (setting [9]), 29 nM.
Take AALLNSAGL [Pepl, AALLNSA(G/V)L]: the IC50 on H-2D^b (setting [8]) is 3 nM; at H-2D^b (setting [9]) it was 52 nM.
As for AQL(P/A)NDVVL [Pep2], the IC50 at H-2D^b (setting [8]) is 9 nM; at H-2D^b (setting [9]) it was 100 nM.
As for ASMTN(R/M)ELM [Pep4], the IC50 is 2 nM at H-2D^b (setting [8]) and 3 nM at H-2D^b (setting [9]).
For FMACNLLLV [Pep11, FM(A/S)CNLLLV], the IC50 on H-2D^b (setting [8]) was 79 nM; at H-2D^b (setting [9]), 24 nM.
As for MAPIDHTAM [Pep3, MAPIDHT(A/T)M], the half-maximal inhibitory concentration (IC50) was 30 nM at H-2D^b (setting [8]) and 102 nM on H-2D^b (setting [9]).
Regarding MGGMNRRPI [Pep10, MG(G/V)MNRRPI], the half-maximal inhibitory concentration (IC50) on H-2D^b (setting [8]) was 77 nM; at H-2D^b (setting [9]) it was 841 nM.
Turning to SAIRSYQDV [Pep8, SAIRSYQ(D/Y)V], the results for the 50% inhibitory concentration (IC50) on H-2D^b (setting [8]) and on H-2D^b (setting [9]) were 35 nM and 755 nM, respectively.
In the case of SIIVFNLV [Pep5, SIIVFNL(V/L)], the half-inhibitory concentration (IC50) at H-2K^b (setting [8]) was 8 nM; at H-2K^b (setting [9]) it was 34 nM.
In the case of SSP(D/Y)SLHYL [Pep6], the 50% inhibitory concentration (IC50) on H-2D^b (setting [8]) is 211 nM; on H-2D^b (setting [9]) it was 685 nM.
For the molecule VSPVNDVDV [Pep9, VSPVND(V/L)DV], the results for the IC50 at H-2D^b (setting [8]) and at H-2D^b (setting [9]) were 44 nM and 18 nM, respectively.
Consider “anti-PD-L1 antibody control (Biolegend, 124301)”, for which, in [1], the IC50 was 4.53 nM.
Consider “ihPDL1: soluble human PD-1 (extracellular) - IgG1 Fc fusion protein, human PD-L1 inhibitor, SEQ ID NO:52”, for which, in the assay with PD-L1^+ tumor cells, the “binding of purified ihPDL1 to PD-L1^+ tumor cells” value is on record as “bound to PD-L1^+ tumor cells”. Further, the “blocking the biotin-PD1 binding to PD-L1-coated wells” value with PD-1/PD-L1 interaction is reported as “equivalent activity to the commercial anti-PD-L1”. The “T cell activation (IFN-γ level) in MLR” value in assay [2] was “equivalent activity to the commercial anti-PD-L1”. The “concentration that significantly enhanced luc production in the Jurkat effector cells” value in assay [3] is reported as not above 10 ng/mL. Moreover, the “binding to PD-L1 (SPR)” value in the assay with PD-L1 [4] is listed as “specifically bind to PD-L1”.

B1: iPDL1: murine soluble PD-1 extracellular domain fused with IgG1 Fc as a PD-L1 inhibitor, SEQ ID NO:2 (protein)
chain: MWVRQVPWSFTWAVLQLSWQSGWLLEVPNGPWRSLTFYPAWLTVSEGANATFTCSLSNWSEDLMLNWNRLSPSNQTEKQAAFCNGLSQPVQDARFQIIQLPNRHDFHMNILDTRRNDSGIYLCGAISLHPKAKIEESPGAELVVTERILETSTRYPSPSPKPEGRFQPRGPTIKPCPPCKCPAPNLLGGPSVFIFPPKIKDVLMISLSPIVTCVVVDVSEDDPDVQISWFVNNVEVHTAQTQTHREDYNSTLRVVSALPIQHQDWMSGKEFKCKVNNKDLPAPIERTISKPKGSVRAPQVYVLPPPEEEMTKKQVTLTCMVTDFMPEDIYVEWTNNGKTELNYKNTEPVLDSDGSYFMYSKLRVEKKNWVERNSYSCSVVHEGLHNHHTTKSFSRTPGK
modifications: Mouse
Take B1: the “binding of secreted iPDL1 to PD-L1 on CD45− cells in distant tumors” value with PD-L1 [5] is “also bound to PD-L1 on CD45− cells in untreated, distant tumors”. Moreover, the “binding of purified protein to PD-L1+ tumor cells” value in assay [6] (50 μg/mL, MC38 vs PD-L1-knocked down MC38, anti-IgG Fc staining) is “able to bind to PD-L1+ tumor cells, but not to PD-L1-knocked down tumor cells”. The “binding of secreted iPDL1 to PD-L1 on tumor cells in cell culture” value in assay [6] (MC38 infected with VV-iPDL1/GM at MOI=0.5, anti-IgG Fc staining) was “bound to PD-L1 on the virus-infected (RFP positive) tumor cells, as well as uninfected (RFP negative) tumor cells”. The “IFN-γ+ frequency of PD-1+ CD8+ T cells” value in the assay on PD-1+ CD8+ T cells was “higher IFN-γ+ frequency of PD-1+ CD8+ T cells”.

B2: iPDL1 (murine soluble PD-1 extracellular domain fused with IgG1 Fc) (Fc fusion)
chain: LEVPNGPWRSLTFYPAWLTVSEGANATFTCSLSNWSEDLMLNWNRLSPSNQTEKQAAFCNGLSQPVQDARFQIIQLPNRHDFHMNILDTRRNDSGIYLCGAISLHPKAKIEESPGAELVVTERILETSTRYPSPSPKPEGRFQPRGPTIKPCPPCKCPAPNLLGGPSVFIFPPKIKDVLMISLSPIVTCVVVDVSEDDPDVQISWFVNNVEVHTAQTQTHREDYNSTLRVVSALPIQHQDWMSGKEFKCKVNNKDLPAPIERTISKPKGSVRAPQVYVLPPPEEEMTKKQVTLTCMVTDFMPEDIYVEWTNNGKTELNYKNTEPVLDSDGSYFMYSKLRVEKKNWVERNSYSCSVVHEGLHNHHTTKSFSRTPGK
notes: detection used anti-IgG2a-Fc / anti-mouse IgG; also called soluble PD-1-Fc; soluble PD-1-IgG Fc
As for B2, the IC50 in [7] came to 5.63 nM.
